Experimental findings from patent publication US6716833B2, “Acetylenic α-amino acid-based sulfonamide hydroxamic acid tace inhibitors” (priority 1999, dated 2004) are described below.

SMILES strings stand for the structures.

As usually defined, the % Inhibition is the drop in the measured response relative to a control, in per cent. The term inhibition denotes the relative decrease from the control value, in per cent.

Chain of TNF-α converting enzyme (TACE) (P78536 215-824, species assumed): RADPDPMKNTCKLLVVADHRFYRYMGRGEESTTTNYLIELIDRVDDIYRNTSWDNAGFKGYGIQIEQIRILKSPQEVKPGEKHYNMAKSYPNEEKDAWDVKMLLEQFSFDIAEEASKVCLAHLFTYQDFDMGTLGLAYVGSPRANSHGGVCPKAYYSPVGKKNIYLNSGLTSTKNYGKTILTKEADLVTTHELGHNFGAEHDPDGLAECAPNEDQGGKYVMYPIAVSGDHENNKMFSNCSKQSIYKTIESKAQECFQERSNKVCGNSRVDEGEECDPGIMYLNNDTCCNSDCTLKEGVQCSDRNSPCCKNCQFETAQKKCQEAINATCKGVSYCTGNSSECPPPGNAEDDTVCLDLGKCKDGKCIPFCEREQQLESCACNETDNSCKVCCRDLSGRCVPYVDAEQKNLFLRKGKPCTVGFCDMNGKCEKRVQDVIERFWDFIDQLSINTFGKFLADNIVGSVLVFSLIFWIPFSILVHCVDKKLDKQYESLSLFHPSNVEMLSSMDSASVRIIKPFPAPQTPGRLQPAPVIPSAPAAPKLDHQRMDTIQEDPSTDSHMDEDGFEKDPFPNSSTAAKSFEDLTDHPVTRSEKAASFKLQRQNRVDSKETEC

The first experiment addresses TNF-α converting enzyme (TACE) (Homo sapiens, UniProt P78536). The experiment is described as follows: TACE inhibition (fluorescent peptidyl substrate). It is filed as biochemical. As to conditions: 1 uM; Table 15.
`CC#CCOc1ccc(S(=O)(=O)N[C@@H](CC)C(=O)NO)cc1` [Example 63]: the “% Inhibition at 1 uM (In Vitro Inhibition of TACE)” value (“% Inhibition at 1 uM” below) is recorded as 47.6%.
For the molecule `CC#CCOc1ccc(S(=O)(=O)NC(CC(N)=O)C(=O)NO)cc1` (centres unmarked) [Example 66], the “% Inhibition at 1 uM” value worked out at 45.6%.
With `CC#CCOc1ccc(S(=O)(=O)NC(CC(=O)O)C(=O)NO)cc1` (centres unmarked) [Example 67], the “% Inhibition at 1 uM” value stood at 46.2%.
With `CC#CCOc1ccc(S(=O)(=O)NCCC(=O)NO)cc1` [Example 69], the “% Inhibition at 1 uM” value came out at 48.5%.
For the molecule `CC#CCOc1ccc(S(=O)(=O)NC(CCN)C(=O)NO)cc1` (centres unmarked) [Example 70], the “% Inhibition at 1 uM” value came to 21.1%.
Same read-out and setting: the figure for `CC#CCOc1ccc(S(=O)(=O)NC(CSC(C)(C)C)C(=O)NO)cc1` (centres unmarked) [Example 73] is 79%; for `CC#CCOc1ccc(S(=O)(=O)NC(CCCN)C(=O)NO)cc1` (centres unmarked) [Example 76] it is 29.7%; for `CC#CCOc1ccc(S(=O)(=O)NC(CC(C)C)C(=O)NO)cc1` (centres unmarked) [Example 79] it is 107%.
As for `CC#CCOc1ccc(S(=O)(=O)NC(CCC(=O)O)C(=O)NO)cc1` (centres unmarked) [Example 86], the “% Inhibition at 1 uM” value is 37.5%.
Still for that read-out and setting: as for `CC#CCOc1ccc(S(=O)(=O)NC(Cc2c[nH]cn2)C(=O)NO)cc1` (centres unmarked) [Example 87], the figure is 47.8%; as for `CC#CCOc1ccc(S(=O)(=O)N2CC(OCc3ccccc3)CC2C(=O)NO)cc1` (centres unmarked) [Example 88], 8.4%.
With `CC#CCOc1ccc(S(=O)(=O)N[C@H](C(=O)NO)[C@@H](C)CC)cc1` [Example 89], the “% Inhibition at 1 uM” value came out at 56.8%.
Still for that read-out and setting: as for `CC#CCOc1ccc(S(=O)(=O)NC(Cc2ccccc2)C(=O)NO)cc1` (centres unmarked) [Example 94], the figure is 38.2%; as for `CC#CCOc1ccc(S(=O)(=O)NC(CSCNC(C)=O)C(=O)NO)cc1` (centres unmarked) [Example 96], 22%; as for `CC#CCOc1ccc(S(=O)(=O)NC(CO)C(=O)NO)cc1` (centres unmarked) [Example 98], 2.5%.
Consider `CC#CCOc1ccc(S(=O)(=O)NC(C(=O)NO)C(C)OCc2ccccc2)cc1` (centres unmarked) [Example 99], for which the “% Inhibition at 1 uM” value is 28.5%.
Turning to `CC#CCOc1ccc(S(=O)(=O)NC(C(=O)NO)C(C)O)cc1` (centres unmarked) [Example 100], the “% Inhibition at 1 uM” value was 15.4%.
`CC#CCOc1ccc(S(=O)(=O)NC(Cc2c[nH]c3ccccc23)C(=O)NO)cc1` (centres unmarked) [Example 101]: the “% Inhibition at 1 uM” value was found to be 30.2%.
On to `CC#CCOc1ccc(S(=O)(=O)NC(Cc2ccc(O)cc2)C(=O)NO)cc1` (centres unmarked) [Example 102], for which the “% Inhibition at 1 uM” value came to 27.3%.
Take `CC#CCOc1ccc(S(=O)(=O)NC(Cc2ccc(OCc3ccccc3)cc2)C(=O)NO)cc1` (centres unmarked) [Example 103]: the “% Inhibition at 1 uM” value is reported as 52.8%.
Turning to `CC#CCOc1ccc(S(=O)(=O)NC(C(=O)NO)C(C)C)cc1` (centres unmarked) [Example 104], the “% Inhibition at 1 uM” value came to 38.5%.

Still in this experiment, the particulars now being: 1 uM; Table 15; read-out: % Inhibition at 1 uM (In Vitro Inhibition of TACE).
For the molecule `CC#CCOc1ccc(S(=O)(=O)NC(C)C(=O)NO)cc1` (stereo in doubt) [Example 62B, L-2-(4-but-2-ynyloxy-Benzenesulfonylamino)-N-hydroxy-propionamide], the inhibition at 1 µM is 46.2%.
As for `CC#CCOc1ccc(S(=O)(=O)N[C@@H](C(=O)NO)C(C)C)cc1` [Example 85], the inhibition at 1 µM amounted to 102%.

Still in this experiment, the particulars now being: IC 50 nM (In Vitro Inhibition of TACE), Table 15.
Turning to `CC#CCOc1ccc(S(=O)(=O)N[C@@H](CCCNC(=N)N)C(=O)NO)cc1` [Example 64], the IC50 stood at 420 ± 50 nM.
`CC#CCOc1ccc(S(=O)(=O)N[C@@H](CCCN=C(N)NS(=O)(=O)c2ccc(C)cc2)C(=O)NO)cc1` [Example 65] came in with an IC50 of 398 ± 136 nM.
`CC#CCOc1ccc(S(=O)(=O)N[C@@H](CC(=O)OC2CCCCC2)C(=O)NO)cc1` [Example 68]: the IC50 stood at 885 nM.
`CC#CCOc1ccc(S(=O)(=O)N[C@@H](CC2CCCCC2)C(=O)NO)cc1` [Example 71]: the IC50 was determined as 402 ± 55 nM.
Molecule `CC#CCOc1ccc(S(=O)(=O)N[C@H](C(=O)NO)C2CCCCC2)cc1` [Example 72] returned an IC50 of 550 nM.
`CC#CCOc1ccc(S(=O)(=O)N[C@@H](CSCc2ccc(OC)cc2)C(=O)NO)cc1` [Example 74] registered an IC50 of 297 ± 119 nM.
The molecule `CC#CCOc1ccc(S(=O)(=O)N[C@H](CC(N)=O)C(=O)NO)cc1` [Example 75] came in with an IC50 of 387 nM.
`CC#CCOc1ccc(S(=O)(=O)N[C@H](CC2CCCCC2)C(=O)NO)cc1` [Example 77] gave an IC50 of 6.9 ± 3.3 nM.
Molecule `CC#CCOc1ccc(S(=O)(=O)N[C@@H](C(=O)NO)C2CCCCC2)cc1` [Example 78] had an IC50 of 11.8 ± 4.6 nM.
The molecule `CC#CCOc1ccc(S(=O)(=O)N[C@H](CCSC)C(=O)NO)cc1` [Example 80] came in with an IC50 of 10.8 ± 3.7 nM.
Turning to `CC#CCOc1ccc(S(=O)(=O)N[C@H](Cc2ccccc2)C(=O)NO)cc1` [Example 81], the IC50 was found to be 4.99 ± 1.1 nM.
As to `CC#CCOc1ccc(S(=O)(=O)N2CCC[C@@H]2C(=O)NO)cc1` [Example 82], the IC50 turned out to be 7.1 nM.
The molecule `CC#CCOc1ccc(S(=O)(=O)N[C@H](Cc2c[nH]c3ccccc23)C(=O)NO)cc1` [Example 83] returned an IC50 of 45.1 ± 9.5 nM.
In turn, `CC#CCOc1ccc(S(=O)(=O)N[C@H](Cc2ccc(O)cc2)C(=O)NO)cc1` [Example 84] yielded an IC50 of 7.8 ± 0.4 nM.
Regarding `CC#CCOc1ccc(S(=O)(=O)N[C@@H](C(=O)NO)C(C)C)cc1` [Example 85], the IC50 came to 8.3 ± 2.7 nM.
`CC#CCOc1ccc(S(=O)(=O)N[C@@H](CC(C)C)C(=O)NO)cc1` [Example 90]: the IC50 came to 462 ± 58 nM.
On to `CC#CCOc1ccc(S(=O)(=O)N[C@@H](CCCCN)C(=O)NO)cc1` [Example 92], for which the IC50 came out at 490 ± 139 nM.
In turn, `CC#CCOc1ccc(S(=O)(=O)N[C@@H](CCCC)C(=O)NO)cc1` [Example 93] came in with an IC50 of 546 nM.
On the same count and under the same terms, as for `CC#CCOc1ccc(S(=O)(=O)N[C@H](C(=O)NO)c2ccccc2)cc1` [Example 95], the figure is 120 nM; as for `CC#CCOc1ccc(S(=O)(=O)N[C@@H](COCc2ccccc2)C(=O)NO)cc1` [Example 97], 283 ± 42 nM; as for `CC#CCOc1ccc(S(=O)(=O)N[C@H](CCCNC(=N)NS(=O)(=O)c2c(C)cc(OC)c(C)c2C)C(=O)NO)cc1` [Example 295], 29.3 nM.
Molecule `CC#CCOc1ccc(S(=O)(=O)N[C@H](CCCNC(=N)N)C(=O)NO)cc1` [Example 296, (2R)-2-(4-But-2-ynyloxy-benzenesulfonylamino)-5-guanidino-pentanoic acid hydroxyamide] gave an IC50 of 10.9 nM.
`CC#CCOc1ccc(S(=O)(=O)N[C@H](CCCNC(=N)NS(=O)(=O)c2ccc(C)cc2)C(=O)NO)cc1` [Example 297, (2R)-2-({[4-(2-Butynyloxy)phenyl]sulfonyl}amino)-N-hydroxy-5-[(imino{[(4-methylphenyl)sulfonyl]amino}methyl)amino]pentanamide] had an IC50 of 10.9 nM.
`CC#CCOc1ccc(S(=O)(=O)N[C@H](CSC(C)(C)C)C(=O)NO)cc1` [Example 299, (2S)-3-(tert-Butylthio)-2-({[4-(but-2-ynyloxy)phenyl]sulfonyl}amino)-N-hydroxypropanamide] had an IC50 of 10.4 nM.

The experiment is the same for the next values; noted with them: read-out: IC 50 nM (In Vitro Inhibition of TACE); Table 15.
With `CC#CCOc1ccc(S(=O)(=O)NC(CSC(C)(C)C)C(=O)NO)cc1` (centres unmarked) [Example 73], the IC50 turned out to be 451 ± 31 nM.
Consider `CC#CCOc1ccc(S(=O)(=O)NC(CC(C)C)C(=O)NO)cc1` (centres unmarked) [Example 79], for which the IC50 came out at 5.7 ± 2.5 nM.

Staying with this experiment, now noted: read-out: TACE IC50.
As to `CC#CCOc1ccc(S(=O)(=O)N(C)CC(=O)NO)cc1` [Example 17, 2-[(4-but-2-ynyloxy-Benzenesulfonyl)-methyl-amino]-N-hydroxy-acetamide], the IC50 worked out at 6.8 nM.
